Experiments:
Type in all cases: in vivo
[1] = test system: barnyardgrass (Echinochloa crus-galli); test: Test A postemergence; conditions: Echinochloa crus-galli, post-emergence, 240 h, read-out: Plant response rating, Barnyardgrass; for pest or weed control at 125 g/ha: 125 g ai/ha, postemergence, visual injury after approximately 10 d, 0 to 100 scale (0 no effect, 100 complete control)
In short: (§1)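 Preemergence directed soil spray on seeded pots, or postemergence application to plants 2–10 cm, one- to two-leaf. Solvent mixture non-phytotoxic, with surfactant. Scored ~10 d later, visually, 0–100 vs untreated.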

[2] = test system: wheat (Triticum aestivum); test: Test A postemergence; conditions: Triticum aestivum, post-emergence, 240 h, read-out: Plant response rating, Wheat; for plant injury at 125 g/ha: 125 g ai/ha, postemergence, visual injury after approximately 10 d, 0 to 100 scale (0 no effect, 100 complete control)
In short: as §1

[3] = test system: blackgrass (Alopecurus myosuroides); test: Test A postemergence; conditions: Alopecurus myosuroides, post-emergence, 240 h, read-out: Plant response rating, Blackgrass; for pest or weed control at 125 g/ha: 125 g ai/ha, postemergence, visual injury after approximately 10 d, 0 to 100 scale (0 no effect, 100 complete control)
In short: as §1

[4] = test system: pigweed (Amaranthus retroflexus); test: Test A postemergence; conditions: Amaranthus retroflexus, post-emergence, 240 h, read-out: Plant response rating, Pigweed; for pest or weed control at 125 g/ha: 125 g ai/ha, postemergence, visual injury after approximately 10 d, 0 to 100 scale (0 no effect, 100 complete control)
In short: as §1

[5] = test system: giant foxtail (Setaria faberii); test: Test A postemergence; conditions: Setaria faberi, post-emergence, 240 h, read-out: Plant response rating, Foxtail, Giant; for pest or weed control at 125 g/ha: 125 g ai/ha, postemergence, visual injury after approximately 10 d, 0 to 100 scale (0 no effect, 100 complete control)
In short: as §1

corn (Zea mays) = test: Test A postemergence; conditions: Zea mays, post-emergence, 240 h; for Corn plant response rating (crop injury, 0 = no effect, 100 = complete kill) at 125 g/ha: 125 g ai/ha, postemergence, visual injury after approximately 10 d, 0 to 100 scale (0 no effect, 100 complete control)
In short: as §1

[6] = test system: ragweed (common ragweed, Ambrosia elatior); test: Test A postemergence; conditions: Ambrosia artemisiifolia, post-emergence, 240 h, read-out: Plant response rating, Ragweed; for pest or weed control at 125 g/ha: 125 g ai/ha, postemergence, visual injury after approximately 10 d, 0 to 100 scale (0 no effect, 100 complete control)
In short: as §1

Kochia (Kochia scoparia) = test: Test A postemergence; conditions: Bassia scoparia, post-emergence, 240 h, read-out: Plant response rating, Kochia; for pest or weed control at 125 g/ha: 125 g ai/ha, postemergence, visual injury after approximately 10 d, 0 to 100 scale (0 no effect, 100 complete control)
In short: as §1

[7] = test system: Galium (catchweed bedstraw, Galium aparine); test: Test A postemergence; conditions: Galium, post-emergence, 240 h, read-out: Plant response rating, Galium; for pest or weed control at 125 g/ha: 125 g ai/ha, postemergence, visual injury after approximately 10 d, 0 to 100 scale (0 no effect, 100 complete control)
In short: as §1

[8] = test system: ryegrass, Italian (Italian ryegrass, Lolium multiflorum); test: Test A postemergence; conditions: Lolium multiflorum, post-emergence, 240 h, read-out: Plant response rating, Ryegrass, Italian; for pest or weed control at 125 g/ha: 125 g ai/ha, postemergence, visual injury after approximately 10 d, 0 to 100 scale (0 no effect, 100 complete control)
In short: as §1

[9] = test system: barnyardgrass (Echinochloa crus-galli); test: Test B flooded paddy test; conditions: Echinochloa crus-galli, Flood, 250 g ai/ha; scale of 0 to 100 where 0 is no effect and 100 is complete control; read-out: Barnyardgrass plant response rating
In short: (§2)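 Evaluation by eye, against controls, occurred 13–15 d post-treatment in a greenhouse, using a 0 (no effect) to 100 (complete control) scale. Application was into the paddy water, 3 cm deep over the soil, on 2-leaf plants.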

[10] = test system: sedge, umbrella (small-flower umbrella sedge, Cyperus difformis); test: Test B flooded paddy test; conditions: Cyperus difformis, Flood, 250 g ai/ha; scale of 0 to 100 where 0 is no effect and 100 is complete control; read-out: Sedge, Umbrella plant response rating
In short: as §2

rice (Oryra sativa) = test: Test B flooded paddy test; conditions: Oryza sativa, Flood, 250 g ai/ha; scale of 0 to 100 where 0 is no effect and 100 is complete control; read-out: Rice plant response rating
In short: as §2

[11] = test system: ducksalad (Heteranthera limosa); test: Test B flooded paddy test; conditions: Heteranthera limosa, Flood, 250 g ai/ha; scale of 0 to 100 where 0 is no effect and 100 is complete control; read-out: Ducksalad plant response rating
In short: as §2

[12] = Postemergence, 31 g ai/ha, visual injury after approx. 10 d, 0 to 100 scale, 0 no effect, 100 complete control

Row | Compound | pest or weed control at 125 g/ha [1] [%] | plant injury at 125 g/ha [2] [%] | pest or weed control at 125 g/ha [3] [%] | pest or weed control at 125 g/ha [4] [%] | pest or weed control at 125 g/ha [5] [%] | Corn plant response rating (crop injury, 0 = no effect, 100 = complete kill) at 125 g/ha (corn (Zea mays)) [%] | pest or weed control at 125 g/ha [6] [%] | pest or weed control at 125 g/ha (Kochia (Kochia scoparia)) [%] | pest or weed control at 125 g/ha [7] [%] | pest or weed control at 125 g/ha [8] [%] | pest or weed control at 250 g/ha [9] [%] | pest or weed control at 250 g/ha [10] [%] | pest or weed control at 250 g/ha (rice (Oryra sativa)) [%] | pest or weed control at 250 g/ha [11] [%] | also measured
1 | CN1C[C@H](c2ccc(C(F)(F)F)cc2)[C@@H](C(=O)Nc2ccc(F)c(F)c2F)C1=O [Compound 745] | 90 | 60 | 40 | 70 | 90 | 90 | 40 | 70 | 60 | 50 | 70 | 0 | 40 | 100 | –
2 | CS(=O)(=O)c1ccccc1NC(=O)[C@H]1C(=O)NC[C@@H]1c1cccc2c1OC(F)(F)O2 [Compound 753] | 50 | 0 | 0 | 0 | 0 | 0 | 0 | 0 | 0 | 0 | 0 | 0 | 0 | 60 | –
3 | Cc1ccc([C@H]2CNC(=S)[C@@H]2C(=O)Nc2cccc(F)c2C)cc1C [Compound 764] | 80 | 0 | 0 | 0 | 0 | 0 | 0 | 0 | 0 | 30 | 50 | 0 | 0 | 90 | –
4 | CSc1ccccc1NC(=O)[C@H]1C(=S)NC[C@@H]1c1ccc(C)c(C)c1 [Compound 766] | 10 | 0 | 0 | 0 | 0 | 0 | 0 | 0 | 0 | 0 | 0 | 60 | 0 | 85 | –
5 | COc1cc([C@H]2CN(C)C(=O)[C@@H]2C(=O)Nc2ccccc2F)ccc1C(F)(F)F [Compound 768] | 70 | 0 | 0 | 0 | 80 | 30 | 0 | 0 | 30 | 30 | 60 | 0 | 15 | 85 | –
6 | COc1cc([C@H]2CN(C)C(=O)[C@@H]2C(=O)Nc2cccc(F)c2F)ccc1C(F)(F)F [Compound 770] | 60 | 0 | 0 | 30 | 70 | 50 | 0 | 40 | 60 | 0 | 0 | 0 | 0 | 0 | pest or weed control at 31 g/ha [1, 12]: 30%; plant injury at 31 g/ha [2, 12]: 0%; pest or weed control at 31 g/ha [3, 12]: 0%; pest or weed control at 31 g/ha [4, 12]: 0%; pest or weed control at 31 g/ha [5, 12]: 60%; Corn plant response rating (crop injury, 0 = no effect, 100 = complete kill) at 31 g/ha (corn (Zea mays); [12]): 0%; pest or weed control at 31 g/ha [6, 12]: 0%; pest or weed control at 31 g/ha (Kochia (Kochia scoparia); [12]): 0%; pest or weed control at 31 g/ha [7, 12]: 30%; pest or weed control at 31 g/ha [8, 12]: 0%
7 | CC(F)(F)c1cccc([C@H]2CNC(=O)[C@@H]2C(=O)Nc2cccc(F)c2F)c1 [Compound 779] | 90 | 80 | 70 | 0 | 80 | 80 | 20 | 30 | 60 | 40 | 60 | 0 | 0 | 100 | –
8 | CC(F)(F)c1cccc([C@H]2CNC(=O)[C@@H]2C(=O)Nc2ccccc2S(C)(=O)=O)c1 [Compound 780] | 60 | 30 | 50 | 0 | 60 | 40 | 0 | 30 | 50 | 0 | 20 | 0 | 0 | 90 | –

Source: patent US12077503B2, “Substituted cyclic amides and their use as herbicides” (FMC CORPORATION, priority 2015, dated 2024)
